“And” between values parts separate entries of the source, which are not always exact repeats. Equal values may be shown once. Inconclusive results and toxic doses are left out. No stated cut-off is given here; in the data, active means T/C of 150% or more; inactive means T/C below 125%.
System: L1210 leukemia ip in BDF1 mice, survival T/C
Experiment: NCI In Vivo Anticancer Drug Screen. Data for tumor model L1210 Leukemia (intraperitoneal) in B6D2F1 (BDF1) mice
Conditions: endpoint: mean survival time, higher = longer survival
How it was run: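 Each compound was tested against a transplantable tumor grown in mice. The endpoint was survival, with treated animals benchmarked against vehicle controls as a simple ratio.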

[1] = dose: 100.0 mg/kg/injection, schedule: Q01DX009 (ip), vehicle: Klucel (hydroxypropylcellulose) (HPC)
[2] = dose: 100.0 mg/kg/injection, schedule: Q04DX003 (ip), vehicle: Klucel (hydroxypropylcellulose) (HPC)
[3] = dose: 200.0 mg/kg/injection, schedule: Q01DX009 (ip), vehicle: Klucel (hydroxypropylcellulose) (HPC)
[4] = dose: 200.0 mg/kg/injection, schedule: Q04DX003 (ip), vehicle: Klucel (hydroxypropylcellulose) (HPC)
[5] = dose: 400.0 mg/kg/injection, schedule: Q01DX009 (ip), vehicle: Klucel (hydroxypropylcellulose) (HPC)
[6] = dose: 100.0 mg/kg/injection, schedule: Q04DX002 (ip), vehicle: saline
[7] = dose: 12.5 mg/kg/injection, schedule: Q01DX009 (ip), vehicle: saline with Tween-80
[8] = dose: 25.0 mg/kg/injection, schedule: Q01DX009 (ip), vehicle: saline with Tween-80
[9] = dose: 50.0 mg/kg/injection, schedule: Q01DX009 (ip), vehicle: saline with Tween-80
[10] = dose: 50.0 mg/kg/injection, schedule: Q01DX009 (ip), vehicle: saline
[11] = dose: 100.0 mg/kg/injection, schedule: Q01DX009 (ip), vehicle: saline
[12] = dose: 100.0 mg/kg/injection, schedule: Q04DX003 (ip), vehicle: saline
[13] = dose: 200.0 mg/kg/injection, schedule: Q01DX009 (ip), vehicle: saline
[14] = dose: 400.0 mg/kg/injection, schedule: Q04DX003 (ip), vehicle: saline
[15] = dose: 100.0 mg/kg/injection, schedule: Q01DX001 (ip), vehicle: carboxymethylcellulose (CMC)
[16] = dose: 200.0 mg/kg/injection, schedule: Q01DX001 (ip), vehicle: carboxymethylcellulose (CMC)
[17] = dose: 400.0 mg/kg/injection, schedule: Q01DX001 (ip), vehicle: carboxymethylcellulose (CMC)
[18] = dose: 100.0 mg/kg/injection, schedule: Q01DX001 (ip), vehicle: saline
[19] = dose: 200.0 mg/kg/injection, schedule: Q01DX001 (ip), vehicle: saline

Measured: T/C

CC[n+]1csc2ccccc21
inactive: dose: 75.0 mg/kg/injection, schedule: Q01DX001 (ip), vehicle: saline 102 % of control | dose: 150.0 mg/kg/injection, schedule: Q01DX001 (ip), vehicle: saline 105 % of control | dose: 300.0 mg/kg/injection, schedule: Q01DX001 (ip), vehicle: saline 97 % of control

CCN(CC)CCN(C)c1ccc(CO)c2sc3cc(Cl)ccc3c(=O)c12
inactive: dose: 7.81 mg/kg/injection, schedule: Q01DX009 (ip), vehicle: saline 101 % of control | dose: 15.63 mg/kg/injection, schedule: Q01DX009 (ip), vehicle: saline 101 % of control | dose: 31.25 mg/kg/injection, schedule: Q01DX009 (ip), vehicle: saline 100 % of control | dose: 62.5 mg/kg/injection, schedule: Q01DX009 (ip), vehicle: saline 99 % of control

[CH3][Sn]([CH3])([Cl])[CH2]Cl
inactive: dose: 0.39 mg/kg/injection, schedule: Q01DX009 (ip), vehicle: saline 112 % of control | dose: 0.78 mg/kg/injection, schedule: Q01DX009 (ip), vehicle: saline 119 % of control | dose: 1.56 mg/kg/injection, schedule: Q01DX009 (ip), vehicle: saline 97 % of control and 91 % of control | dose: 3.12 mg/kg/injection, schedule: Q01DX009 (ip), vehicle: saline 87 % of control

O=C(O)CCSSCCC(=O)O
inactive: dose: 50.0 mg/kg/injection, schedule: Q04DX003 (ip), vehicle: Klucel (hydroxypropylcellulose) (HPC) 103 % of control | [1] 95 % of control | [2] 86 % of control | [3] 87 % of control | [4] 86 % of control

O=C1OCCOC1=O
inactive: dose: 75.0 mg/kg/injection, schedule: Q01DX001 (ip), vehicle: other 90 % of control | dose: 150.0 mg/kg/injection, schedule: Q01DX001 (ip), vehicle: other 95 % of control | dose: 300.0 mg/kg/injection, schedule: Q01DX001 (ip), vehicle: other 95 % of control

CCc1ccccc1NC(=O)Nc1ccccc1C(N)=O
inactive: [1] 87 % of control | [3] 93 % of control | [5] 93 % of control

COC1OC(COC(C)=O)C(OC(C)=O)C2C1N2C(N)=S (configuration not stated)
inactive: [6] 110 % of control | dose: 400.0 mg/kg/injection, schedule: Q04DX002 (ip), vehicle: saline 113 % of control

O=C1OCCN1/N=C\c1ccccc1
inactive: dose: 100.0 mg/kg/injection, schedule: Q01DX009 (ip), vehicle: other 116 % of control | dose: 200.0 mg/kg/injection, schedule: Q01DX009 (ip), vehicle: other 98 % of control | dose: 400.0 mg/kg/injection, schedule: Q01DX009 (ip), vehicle: other 97 % of control

COc1cc2c3c(c1)/C(=N\N)CCN3CCC2
inactive: [7] 90 % of control | [8] 94 % of control | [9] 92 % of control | dose: 100.0 mg/kg/injection, schedule: Q04DX003 (ip), vehicle: saline with Tween-80 92 % of control | dose: 200.0 mg/kg/injection, schedule: Q01DX009 (ip), vehicle: saline with Tween-80 99 % of control | dose: 200.0 mg/kg/injection, schedule: Q04DX003 (ip), vehicle: saline with Tween-80 103 % of control

O=c1cccc[nH]1
inactive: dose: 25.0 mg/kg/injection, schedule: Q01DX009 (ip), vehicle: saline 100 % of control | dose: 45.0 mg/kg/injection, schedule: Q01DX009 (ip), vehicle: saline 91 % of control | [10] 106 % of control and 93 % of control | dose: 65.0 mg/kg/injection, schedule: Q01DX009 (ip), vehicle: saline 104 % of control | [11] 96 % of control and 110 % of control and 91 % of control | [6] 95 % of control | [12] 91 % of control | dose: 150.0 mg/kg/injection, schedule: Q01DX009 (ip), vehicle: saline 102 % of control | [13] 109 % of control and 110 % of control | dose: 200.0 mg/kg/injection, schedule: Q04DX002 (ip), vehicle: saline 100 % of control | dose: 200.0 mg/kg/injection, schedule: Q04DX003 (ip), vehicle: saline 91 % of control | [14] 92 % of control

c1ccc2c(c1)OCOc1ccccc1OCO2
inactive: [15] 94 % of control | [16] 92 % of control | [17] 92 % of control

COc1c(Cl)cc([N+](=O)[O-])cc1Cl
inactive: dose: 25.0 mg/kg/injection, schedule: Q01DX009 (ip), vehicle: gum acacia 100 % of control | dose: 50.0 mg/kg/injection, schedule: Q01DX009 (ip), vehicle: gum acacia 106 % of control

O=C(Nc1ccccc1F)C(c1ccccc1)c1ccccc1
inactive: [1] 103 % of control | [2] 96 % of control | [3] 93 % of control | [4] 95 % of control | [5] 94 % of control | dose: 400.0 mg/kg/injection, schedule: Q04DX003 (ip), vehicle: Klucel (hydroxypropylcellulose) (HPC) 95 % of control

C1COCOC1
inactive: dose: 50.0 mg/kg/injection, schedule: Q01DX009 (ip), vehicle: acetone 109 % of control | dose: 100.0 mg/kg/injection, schedule: Q01DX009 (ip), vehicle: acetone 106 % of control | dose: 200.0 mg/kg/injection, schedule: Q01DX009 (ip), vehicle: acetone 119 % of control

O=C(NCCCCC(NC(=O)OCc1ccccc1)C(=O)NCCCCCCCCCCNC(=O)C(CCCCNC(=O)OCc1ccccc1)NC(=O)OCc1ccccc1)OCc1ccccc1 (configuration not stated)
inactive: dose: 10.0 mg/kg/injection, schedule: Q01DX012 (ip), vehicle: saline 94 % of control | dose: 30.0 mg/kg/injection, schedule: Q01DX012 (ip), vehicle: saline 96 % of control | dose: 100.0 mg/kg/injection, schedule: Q01DX012 (ip), vehicle: saline 94 % of control | dose: 300.0 mg/kg/injection, schedule: Q01DX012 (ip), vehicle: saline 88 % of control

NCCOP(=O)(O)O
inactive: [10] 95 % of control | [11] 98 % of control | [13] 106 % of control

CN(c1ccccc1)S(=O)(=O)c1ccc(N)cc1
inactive: dose: 100.0 mg/kg/injection, schedule: Q01DX001 (ip), vehicle: Klucel (hydroxypropylcellulose) (HPC) 96 % of control | dose: 200.0 mg/kg/injection, schedule: Q01DX001 (ip), vehicle: Klucel (hydroxypropylcellulose) (HPC) 104 % of control | dose: 400.0 mg/kg/injection, schedule: Q01DX001 (ip), vehicle: Klucel (hydroxypropylcellulose) (HPC) 102 % of control

Cc1c(I)sc(I)c1I
inactive: [15] 94 % of control | [16] 94 % of control | [17] 100 % of control

CCOP(=[Se])(OCC)OCC
inactive: [7] 91 % of control | [8] 107 % of control | [9] 88 % of control

CC(=O)c1ccccc1NC(=O)c1ccccc1F
inactive: [1] 98 % of control | [3] 113 % of control | [5] 95 % of control

ClCCN1CCN(CCCN2c3ccccc3CCc3ccccc32)CC1
inactive: dose: 12.5 mg/kg/injection, schedule: Q04DX003 (ip), vehicle: saline 106 % of control | dose: 25.0 mg/kg/injection, schedule: Q04DX003 (ip), vehicle: saline 94 % of control | dose: 50.0 mg/kg/injection, schedule: Q04DX003 (ip), vehicle: saline 114 % of control | [12] 102 % of control and 110 % of control | dose: 150.0 mg/kg/injection, schedule: Q04DX003 (ip), vehicle: saline 93 % of control | dose: 225.0 mg/kg/injection, schedule: Q04DX003 (ip), vehicle: saline 103 % of control | dose: 335.0 mg/kg/injection, schedule: Q04DX003 (ip), vehicle: saline 93 % of control and 109 % of control | [14] 101 % of control

Cc1ccc(Cl)nn1
inactive: [18] 108 % of control | [19] 109 % of control

COc1ccccc1/C=C1\SC(=O)N(CCNC(C)=O)C1=O
inactive: [18] 98 % of control | [19] 100 % of control | dose: 400.0 mg/kg/injection, schedule: Q01DX001 (ip), vehicle: saline 96 % of control

O=C1C=C(Br)C(=O)C1(Br)Br
inactive: dose: 75.0 mg/kg/injection, schedule: Q01DX001 (sc), vehicle: olive oil, sesame oil, peanut oil 117 % of control
